Results reported in US9493441B2, “Acyclic cyanoethylpyrazoles as janus kinase inhibitors” (Merck Sharp & Dohme Corp., priority 2011, dated 2016).
Where two headings read alike, the source gives them in different places.

Tests used:
JAK2 = JAK2 (Homo sapiens (Human), UniProt O60674); assay: Jak biochemical HTRF assay, JAK2
JAK1 = JAK1 (Homo sapiens (Human), UniProt P23458); assay: Jak biochemical HTRF assay, JAK1
[1] = JAK2 IC50 (nM), recombinant GST-tagged catalytic domain, [ATP] […]
[2] = JAK1 IC50 (nM), recombinant GST-tagged catalytic domain, [ATP] 31.8 μM
[3] = read-out: JAK2 IC50, recombinant GST-tagged catalytic domain, [ATP] […]
[4] = read-out: JAK1 IC50, recombinant GST-tagged catalytic domain, [ATP] 31.8 μM

JAK1, sequence (P23458 875-1153): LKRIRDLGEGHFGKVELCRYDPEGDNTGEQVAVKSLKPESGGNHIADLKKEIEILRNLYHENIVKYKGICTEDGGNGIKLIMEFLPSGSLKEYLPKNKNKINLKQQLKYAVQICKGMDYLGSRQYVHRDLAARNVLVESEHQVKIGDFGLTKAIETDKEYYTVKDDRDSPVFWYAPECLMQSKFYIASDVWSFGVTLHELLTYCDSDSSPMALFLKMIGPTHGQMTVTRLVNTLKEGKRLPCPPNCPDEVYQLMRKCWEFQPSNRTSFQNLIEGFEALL
JAK2, sequence (O60674 849-1124): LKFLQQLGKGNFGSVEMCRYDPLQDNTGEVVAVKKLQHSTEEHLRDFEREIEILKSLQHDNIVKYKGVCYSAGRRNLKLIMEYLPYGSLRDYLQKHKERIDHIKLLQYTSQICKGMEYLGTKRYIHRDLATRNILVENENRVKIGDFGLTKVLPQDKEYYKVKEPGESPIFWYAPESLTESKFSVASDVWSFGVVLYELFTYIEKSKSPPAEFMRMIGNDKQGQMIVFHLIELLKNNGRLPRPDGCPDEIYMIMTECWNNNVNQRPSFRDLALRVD

| SMILES | IC50 (JAK2; [1]) | IC50 (JAK1; [2]) | IC50 (JAK2; [3]) | IC50 (JAK1; [4]) |
| --- | --- | --- | --- | --- |
| N#CCC(C1CCC1)n1cc(C(N)=O)c(Nc2ccccc2)n1 (centres unmarked) [Example 1-19, 1-(2-cyano-1-cydobutylethyl)-3-(phenylamino)-1H-pyrazole-4-carboxamide] | 272 nM | 31 nM | – | – |
| N#CCC(C1CC1)n1cc(C(N)=O)c(Nc2ccnc(F)c2)n1 (centres unmarked) [Example 4-37, 1-(2-cyano-1-cyclopropylethyl)-3-[(2-fluoropyridin-4-yl)amino]-1H-pyrazole-4-carboxamide] | 44 nM | 5 nM | – | – |
| N#CCC(C1CCCC1)n1cc(C(N)=O)c(Nc2ccccc2)n1 (single isomer, unassigned) [Example 16-4, 1-[(1S or 1R)-2-cyano-1-cyclopentylethyl]-3-(phenylamino)-1H-pyrazole-4-carboxamide] | 567 nM | 141 nM | – | – |
| Cc1noc(-c2ccc(Nc3nn([C@@H](CC#N)C4CC4)cc3C(N)=O)cc2)n1 (single isomer, unassigned) [Example 18-2, 1-[(1R or 1S)-2-cyano-1-cyclopropylethyl]-3-{[4-(3-methyl-1,2,4-oxadiazol-5-yl)phenyl]amino}-1H-pyrazole-4-carboxamide] | – | – | 257 nM | 34 nM |
| N#CC[C@@H](C1CCN(C(=O)OCCN2CCOCC2)CC1)n1cc(C(N)=O)c(Nc2ccc(F)cc2)n1 [Example 11-13, 2-morpholin-4-ylethyl 4-[(1S)-1-{4-carbamoyl-3-[(4-fluorophenyl)amino]-1H-pyrazol-1-yl}-2-cyanoethyl]piperidine-1-carboxylate] | 1500 nM | 753 nM | – | – |
| COCCOC(=O)N1CCC([C@H](CC#N)n2cc(C(N)=O)c(Nc3ccc(F)cc3)n2)CC1 [Example 12-1, 2-Methoxyethyl 4-[(1S)-1-{4-carbamoyl-3-[(4-fluorophenyl)amino]-1H-pyrazol-1-yl}-2-cyanoethyl]piperidine-1-carboxylate] | 1500 nM | 181 nM | – | – |
| N#CCC(C1CC1)n1cc(C(N)=O)c(Nc2ccc3c(c2)CN(CC(=O)O)C3=O)n1 (centres unmarked) [Example 8, (5-{[4-Carbamoyl-1-(2-cyano-1-cyclopropylethyl)-1H-pyrazol-3-yl]amino}-1-oxo-1,3-dihydro-2H-isoindol-2-yl)acetic acid] | 34 nM | 1 nM | – | – |
| CN(C)S(=O)(=O)c1ccc(Nc2nn(C(CC#N)C3CC3)cc2C(N)=O)cc1 (centres unmarked) [Example 6-4, 1-(2-cyano-1-cyclopropylethyl)-3-{[4-(dimethylsulfamoyl)phenyl]amino}-1H-pyrazole-4-carboxamide] | 3 nM | 1 nM | – | – |
| N#CCC(C1CC1)n1cc(C(N)=O)c(Nc2cccc(C(F)(F)F)c2)n1 (centres unmarked) [Example 4-4, 1-(2-cyano-1-cyclopropylethyl)-3-{[3-(trifluoromethyl)phenyl]amino}-1H-pyrazole-4-carboxamide] | 394 nM | 82 nM | – | – |
| COc1cc(Nc2nn(C(CC#N)C3CC3)cc2C(N)=O)ccn1 (centres unmarked) [Example 4-12, 1-(2-cyano-1-cyclopropylethyl)-3-[(2-methoxypyridin-4-yl)amino]-1H-pyrazole-4-carboxamide] | 66 nM | 7 nM | – | – |
| Cc1nnc(-c2ccc(Nc3nn(C(CC#N)C4CC4)cc3C(N)=O)cc2)o1 (centres unmarked) [Example 4-25, 1-(2-cyano-1-cyclopropylethyl)-3-{[4-(5-methyl-1,3,4-oxadiazol-2-yl)phenyl]amino}-1H-pyrazole-4-carboxamide] | 221 nM | 42 nM | – | – |
| CC(C)(CC#N)n1cc(C(N)=O)c(Nc2ccccc2)n1 [Example 1-21, 1-(2-cyano-1,1-dimethylethyl)-3-(phenylamino)-1H-pyrazole-4-carboxamide] | 103 nM | 12 nM | – | – |
| CC(C)(O)COCc1cccc(Nc2nn(C(CC#N)C3CC3)cc2C(N)=O)c1 (centres unmarked) [Example 6-1, 1-(2-Cyano-1-cyclopropylethyl)-3-({3-[(2-hydroxy-2-methylpropoxy)methyl]phenyl}amino)-1H-pyrazole-4-carboxamide] | 115 nM | 47 nM | – | – |
| C[C@H](CC#N)n1cc(C(N)=O)c(Nc2ccccc2)n1 (single isomer, unassigned) [Example 17-2, 1-[(2S or 2R)-1-cyanopropan-2-yl]-3-(phenylamino)-1H-pyrazole-4-carboxamide] | – | – | 469 nM | 47 nM |
| N#CCC(C1CC1)n1cc(C(N)=O)c(Nc2ccc(S(N)(=O)=O)cc2)n1 (centres unmarked) [Example 6-3, 1-(2-cyano-1-cyclopropylethyl]-3-[(4-sulfamoylphenyl)amino]-1H-pyrazole-4-carboxamide] | 10 nM | 1 nM | – | – |
| CC[C@H](CC#N)n1cc(C(N)=O)c(Nc2ccccc2)n1 (single isomer, unassigned) [Example 16-1, 1-[(1R or 1S)-1-(cyanomethyl)propyl]-3-(phenylamino)-1H-pyrazole-4-carboxamide] | – | – | 578 nM | 43 nM |
| N#CCCc1cccc(Nc2nn(C(CC#N)C3CC3)cc2C(N)=O)c1 (centres unmarked) [Example 4-7, 1-(2-cyano-1-cyclopropylethyl)-3-{[3-(2-cyanoethyl)phenyl]amino}-1H-pyrazole-4-carboxamide] | 73 nM | 13 nM | – | – |
| C[C@H](C#N)[C@H](C)n1cc(C(N)=O)c(Nc2ccccc2)n1 (mixture of isomers) [Example 1-22, 1-((2S, 3S and 2R, 2R)-3-cyclobutan-2-yl)-3-(phenylamino)-1H-pyrazole-4-carboxamide] | 198 nM | 32 nM | – | – |
| CS(=O)(=O)c1ccc(Nc2nn(C(CC#N)C3CC3)cc2C(N)=O)cc1 (centres unmarked) [Example 4-1, 1-(2-Cyano-1-cyclopropylethyl)-3-{[4-(methylsulfonyl)phenyl]amino}-1H-pyrazole-4-carboxamide] | 28 nM | 3 nM | – | – |
| N#CC[C@@H](C1CCN(C(=O)OC2CCC2)CC1)n1cc(C(N)=O)c(Nc2ccc(F)cc2)n1 [Example 11-5, cyclobutyl 4-[(1S)-1-{4-carbamoyl-3-[(4-fluorophenyl)amino]-1H-pyrazol-1-yl}-2-cyanoethyl]piperidine-1-carboxylate] | 1170 nM | 33 nM | – | – |
| CC(C)(C)CC(CC#N)n1cc(C(N)=O)c(Nc2ccccc2)n1 (centres unmarked) [Example 1-13] | 1480 nM | 598 nM | – | – |
| N#CCC(C1CCCC1)n1cc(C(N)=O)c(Nc2ccc(C(=O)N3CCS(=O)(=O)CC3)cc2)n1 (centres unmarked) [Example 1-5, 1-(2-cyano-1-cyclopentylethyl)-3-({4-[(1,1-dioxidothiomorpholin-4-yl)carbonyl]phenyl}amino)-1H-pyrazole-4-carboxamide] | 31 nM | 9 nM | – | – |
| COC(=O)N1CCC(C(CC#N)n2cc(C(N)=O)c(Nc3ccc(F)cc3)n2)CC1 (centres unmarked) [Example 11-2, methyl 4-(1-{4-carbamoyl-3-[(4-fluorophenyl)amino]-1H-pyrazol-1-yl}-2-cyanoethyl)piperidine-1-carboxylate] | 890 nM | 55 nM | – | – |
| N#CCC(C1CCCC1)n1cc(C(N)=O)c(Nc2ccccc2)n1 (centres unmarked) [Example 1-20, 1-(2-cyano-1-cyclopentylethyl)-3-(phenylamino)-1H-pyrazole-4-carboxamide] | 474 nM | 69 nM | – | – |
| C[C@@H](CC#N)n1cc(C(N)=O)c(Nc2ccccc2)n1 (single isomer, unassigned) [Example 17-1, 1-[(2S or 2R)-1-cyanopropan-2-yl]-3-(phenylamino)-1H-pyrazole-4-carboxamide] | – | – | 1130 nM | 224 nM |
